This note sets out measurements from patent US11000033B2, “Ketone or oxime compound, and herbicide” (NISSAN CHEMICAL CORPORATION, priority 2014, dated 2021).

Holding throughout (type): in vivo
For one series, the system named is Scirpus juncoides. Briefly: Test Example 1: herbicidal activity, application before weed generation in submerged conditions (symbol B). The conditions noted are these: application herbicide amount 320 g/ha. In outline: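 Greenhouse growth at 25–30 °C lasted 3 weeks after treatment, when each weed was graded 0–5 by herbicidal ratio. Treatment was a diluted emulsion applied to the water surface of 4 cm-submerged alluvial soil on the sowing day.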

Series [1] concerns Setaria viridis. Briefly: Test Example 4: herbicidal effect by soil treatment (symbol G). Particulars: application herbicide amount 320 g/ha. In outline: (§1)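 Seeds were sown in sterilized diluvial soil, covered with about 1.5 cm of soil, and the soil surface was sprayed with a water-diluted emulsion of the compound at a predetermined rate. Plants grew in a greenhouse at 25° C. to 30° C.; effects were scored visually 3 weeks after application.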

Another series deals with Avena fatua. Briefly: Test Example 4: herbicidal effect by soil treatment (symbol I). The conditions noted are these: application herbicide amount 320 g/ha. In outline:
as §1

Series [2] relates to Alopecurus myosuroides. As to the kind of experiment: Test Example 4: herbicidal effect by soil treatment (symbol J). The conditions noted are these: application herbicide amount 320 g/ha. In outline: as §1
The next series concerns Lolium multiflorum Lam. As to the kind of experiment: Test Example 4: herbicidal effect by soil treatment (symbol K). The conditions noted are these: application herbicide amount 320 g/ha. In outline:
as §1

A further series concerns Abutilon theophrasti. Briefly: Test Example 4: herbicidal effect by soil treatment (symbol M). Particulars: application herbicide amount 320 g/ha. In outline: as §1
Series [3] relates to Amaranthus retroflexus. As to the kind of experiment: Test Example 4: herbicidal effect by soil treatment (symbol N). Particulars: application herbicide amount 320 g/ha. In outline: as §1
The next series relates to Stellaria media. As to the kind of experiment: Test Example 4: herbicidal effect by soil treatment (symbol P). The conditions noted are these: application herbicide amount 320 g/ha. In outline:
as §1

A further series has as its system corn. Briefly: Test Example 4: effect on crop by soil treatment (symbol c). The conditions noted are these: application herbicide amount 320 g/ha. In outline:
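Sterilized diluvial soil, spot sowing, ~1.5 cm soil cover; greenhouse 25–30° C.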

Series [4] relates to soybean. As to the kind of experiment: Test Example 4: effect on crop by soil treatment (symbol d). The conditions noted are these: application herbicide amount 320 g/ha. In outline: (§2)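 Diluvial soil (sterilized) in boxes; seeds placed spot-wise alongside weed species; ~1.5 cm covering soil. Greenhouse, 25–30° C.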
Another series deals with rice. Briefly: Test Example 4: effect on crop by soil treatment (symbol b). Particulars: application herbicide amount 320 g/ha. In outline:
as §2

For series [5], the system named is wheat. Briefly: Test Example 4: effect on crop by soil treatment (symbol e). The conditions noted are these: application herbicide amount 320 g/ha. In outline:
as §2

A further series deals with Digitaria ciliaris. As to the kind of experiment: Test Example 5: herbicidal effect by foliage application, plastic box (symbol F). Particulars: 320 g/ha, 3 weeks after application. In outline: (§3)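 Post-emergence spray; diluvial soil (sterilized), ~1.5 cm seed cover; greenhouse 25–30° C; 14-day-old plants; water-diluted emulsion at predetermined dose; visual score at 3 wk post-treatment.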

Series [6] deals with Setaria viridis. Briefly: Test Example 5: herbicidal effect by foliage application, plastic box (symbol G). The conditions noted are these: 320 g/ha, 3 weeks after application. In outline:
as §3

Series [7] deals with Echinochloa crus-galli var. crus-galli. Briefly: Test Example 5: herbicidal effect by foliage application, plastic box (symbol H). The conditions noted are these: 320 g/ha, 3 weeks after application. In outline:
as §3

The subject of series [8] is Alopecurus myosuroides. Briefly: Test Example 5: herbicidal effect by foliage application, plastic box (symbol J). The conditions noted are these: 320 g/ha, 3 weeks after application. In outline: as §3
Series [9] relates to Amaranthus retroflexus. As to the kind of experiment: Test Example 5: herbicidal effect by foliage application, plastic box (symbol N). Particulars: 320 g/ha, 3 weeks after application. In outline: as §3
In another series the test system is Galium spurium. As to the kind of experiment: Test Example 5: herbicidal effect by foliage application, plastic box (symbol Q). The conditions noted are these: 320 g/ha, 3 weeks after application. In outline:
as §3

In series [10] the test system is soybean. Briefly: Test Example 5: effect on crop by foliage application, plastic box (symbol d). Particulars: 320 g/ha, 3 weeks after application. In outline:
(§4)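 Soil: sterilized diluvial. Container: plastic box, 21 × 13 cm, 7 cm deep. Sowing: spot-like, ~1.5 cm cover. Growth: greenhouse, 25° C. to 30° C.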

The next series has as its system rice plant. Briefly: Test Example 5: effect on crop by foliage application, plastic box (symbol b). The conditions noted are these: 320 g/ha, 3 weeks after application. In outline:
as §4

Series [11] has as its system wheat. Briefly: Test Example 5: effect on crop by foliage application, plastic box (symbol e). The conditions noted are these: 320 g/ha, 3 weeks after application. In outline: as §4

Each structure is given as a SMILES string.

Regarding `CON=C(C)CC1CC(O)=C(c2c(C)cc(-c3ccc(F)cc3)cc2C)C1=O` (mixture of isomers) [6-058], in the series with Scirpus juncoides, the “Herbicidal effect grade, B: Scirpus juncoides” value (shortened to “Herbicidal effect grade, B”) was 5 (Herbicidal ratio of 90% or more (almost completely withered)). For the same compound, the “G: Setaria viridis, herbicidal effect grade” value in the series with Setaria viridis [1] is 5 (Herbicidal ratio of 90% or more (almost completely withered)). In addition, the “I: Avena fatua, herbicidal effect grade” value in the series on Avena fatua is listed as 5 (Herbicidal ratio of 90% or more (almost completely withered)). Moreover, the “J: Alopecurus myosuroides, herbicidal effect grade” value with Alopecurus myosuroides [2] is 5 (Herbicidal ratio of 90% or more (almost completely withered)). Also, in the series on Lolium multiflorum Lam., the “K: Lolium multiflorum Lam., herbicidal effect grade” value is recorded as 5 (Herbicidal ratio of 90% or more (almost completely withered)). For the same compound, the “M: Abutilon theophrasti, herbicidal effect grade” value (from here on “M: Abutilon theophrasti”) with Abutilon theophrasti was 5 (Herbicidal ratio of 90% or more (almost completely withered)). In addition, the “N: Amaranthus retroflexus, herbicidal effect grade” value in the series with Amaranthus retroflexus [3] is 5 (Herbicidal ratio of 90% or more (almost completely withered)). In addition, the “P: Stellaria media, herbicidal effect grade” value (from here on “P: Stellaria media”) in the series with Stellaria media was 5 (Herbicidal ratio of 90% or more (almost completely withered)). Moreover, the “c: corn, effect on crop grade” value with corn is on record as 5 (Herbicidal ratio of 90% or more (almost completely withered)). In the series with soybean [4], the “d: soybean, effect on crop grade” value was 0 (Herbicidal ratio of 5% or lower (almost no effect)). Moreover, the “b: directly sowed rice plant, effect on crop grade” value with rice is reported as 5 (Herbicidal ratio of 90% or more (almost completely withered)). For the same compound, the “e: wheat, effect on crop grade” value in the series with wheat [5] is 5 (Herbicidal ratio of 90% or more (almost completely withered)). Besides, the “F: Digitaria ciliaris, herbicidal effect (criteria of Test Example 1)” value in the series on Digitaria ciliaris is reported as 5 (Herbicidal ratio of 90% or more (almost completely withered)). Moreover, the “G: Setaria viridis, herbicidal effect (criteria of Test Example 1)” value in the series with Setaria viridis [6] was 5 (Herbicidal ratio of 90% or more (almost completely withered)). Besides, in [7], the “H: Echinochloa crus-galli var. crus-galli, herbicidal effect (criteria of Test Example 1)” value is recorded as 5 (Herbicidal ratio of 90% or more (almost completely withered)). In addition, the “J: Alopecurus myosuroides, herbicidal effect (criteria of Test Example 1)” value with Alopecurus myosuroides [8] is 5 (Herbicidal ratio of 90% or more (almost completely withered)). In addition, the “N: Amaranthus retroflexus, herbicidal effect (criteria of Test Example 1)” value in the series with Amaranthus retroflexus [9] was 5 (Herbicidal ratio of 90% or more (almost completely withered)). Also, in the series on Galium spurium, the “Q: Galium spurium, herbicidal effect (criteria of Test Example 1)” value is listed as 5 (Herbicidal ratio of 90% or more (almost completely withered)). For the same compound, the “d: soybean, effect on crop (criteria of Test Example 1)” value in the series with soybean [10] was 2 (Herbicidal ratio of 20% or higher and lower than 40%). Further, in the series with rice plant, the “b: directly sowed rice plant, effect on crop (criteria of Test Example 1)” value is 5 (Herbicidal ratio of 90% or more (almost completely withered)). Also, in the series on wheat [11], the “e: wheat, effect on crop (criteria of Test Example 1)” value is given as 5 (Herbicidal ratio of 90% or more (almost completely withered)).

For `CON=C(C)CC1CC(OC(=O)COc2ccccc2)=C(c2c(C)cc(-c3ccc(Cl)cc3)cc2C)C1=O` (mixture of isomers) [6-061], in the series with Scirpus juncoides, the “Herbicidal effect grade, B” value was 1 (Herbicidal ratio of 5% or higher and lower than 20%). Also, the “G: Setaria viridis, herbicidal effect grade” value in the series on Setaria viridis [1] is listed as 5 (Herbicidal ratio of 90% or more (almost completely withered)). Further, the “I: Avena fatua, herbicidal effect grade” value with Avena fatua is 4 (Herbicidal ratio of 70% or higher and lower than 90%). The “J: Alopecurus myosuroides, herbicidal effect grade” value in the series with Alopecurus myosuroides [2] was 5 (Herbicidal ratio of 90% or more (almost completely withered)). Besides, the “K: Lolium multiflorum Lam., herbicidal effect grade” value in the series on Lolium multiflorum Lam. is reported as 5 (Herbicidal ratio of 90% or more (almost completely withered)). Moreover, in the series with Abutilon theophrasti, the “M: Abutilon theophrasti” value is 1 (Herbicidal ratio of 5% or higher and lower than 20%). Besides, the “N: Amaranthus retroflexus, herbicidal effect grade” value with Amaranthus retroflexus [3] was 3 (Herbicidal ratio of 40% or higher and lower than 70%). Also, in the series with Stellaria media, the “P: Stellaria media” value was 3 (Herbicidal ratio of 40% or higher and lower than 70%). Besides, the “c: corn, effect on crop grade” value with corn is 0 (Herbicidal ratio of 5% or lower (almost no effect)). Further, the “d: soybean, effect on crop grade” value in the series on soybean [4] is 0 (Herbicidal ratio of 5% or lower (almost no effect)). Besides, in the series on rice, the “b: directly sowed rice plant, effect on crop grade” value is recorded as 5 (Herbicidal ratio of 90% or more (almost completely withered)). Also, in the series with wheat [5], the “e: wheat, effect on crop grade” value is 2 (Herbicidal ratio of 20% or higher and lower than 40%). Also, the “F: Digitaria ciliaris, herbicidal effect (criteria of Test Example 1)” value in the series with Digitaria ciliaris is reported as 5 (Herbicidal ratio of 90% or more (almost completely withered)). The “G: Setaria viridis, herbicidal effect (criteria of Test Example 1)” value with Setaria viridis [6] is 5 (Herbicidal ratio of 90% or more (almost completely withered)). The “H: Echinochloa crus-galli var. crus-galli, herbicidal effect (criteria of Test Example 1)” value in series [7] is 5 (Herbicidal ratio of 90% or more (almost completely withered)). Further, the “J: Alopecurus myosuroides, herbicidal effect (criteria of Test Example 1)” value with Alopecurus myosuroides [8] is 5 (Herbicidal ratio of 90% or more (almost completely withered)). For the same compound, the “N: Amaranthus retroflexus, herbicidal effect (criteria of Test Example 1)” value with Amaranthus retroflexus [9] was 1 (Herbicidal ratio of 5% or higher and lower than 20%). In addition, the “Q: Galium spurium, herbicidal effect (criteria of Test Example 1)” value in the series with Galium spurium is 3 (Herbicidal ratio of 40% or higher and lower than 70%). The “d: soybean, effect on crop (criteria of Test Example 1)” value in the series on soybean [10] was 3 (Herbicidal ratio of 40% or higher and lower than 70%). The “b: directly sowed rice plant, effect on crop (criteria of Test Example 1)” value in the series with rice plant was 5 (Herbicidal ratio of 90% or more (almost completely withered)). Further, in the series with wheat [11], the “e: wheat, effect on crop (criteria of Test Example 1)” value is given as 5 (Herbicidal ratio of 90% or more (almost completely withered)).

As to `CON=C(C)CC1CC(O)=C(c2c(C)cc(C3CC3)cc2C)C1=O` (stereo not drawn) [6-050], in the series on Scirpus juncoides, the “Herbicidal effect grade, B” value is 1 (Herbicidal ratio of 5% or higher and lower than 20%). Besides, the “G: Setaria viridis, herbicidal effect grade” value is 4 (Herbicidal ratio of 70% or higher and lower than 90%) in the series with Setaria viridis [1]; 2 (Herbicidal ratio of 20% or higher and lower than 40%) with Setaria viridis [6]. Also, in the series on Avena fatua, the “I: Avena fatua, herbicidal effect grade” value is 2 (Herbicidal ratio of 20% or higher and lower than 40%). The “J: Alopecurus myosuroides, herbicidal effect grade” value in the series with Alopecurus myosuroides [2] was 4 (Herbicidal ratio of 70% or higher and lower than 90%); with Alopecurus myosuroides [8], 5 (Herbicidal ratio of 90% or more (almost completely withered)). In addition, in the series on Lolium multiflorum Lam., the “K: Lolium multiflorum Lam., herbicidal effect grade” value is given as 5 (Herbicidal ratio of 90% or more (almost completely withered)). Besides, in the series with Abutilon theophrasti, the “M: Abutilon theophrasti” value is reported as 0 (Herbicidal ratio of 5% or lower (almost no effect)). Besides, the “N: Amaranthus retroflexus, herbicidal effect grade” value with Amaranthus retroflexus [3] and with Amaranthus retroflexus [9] was 0 (Herbicidal ratio of 5% or lower (almost no effect)) each time. For the same compound, in the series with Stellaria media, the “P: Stellaria media” value was 3 (Herbicidal ratio of 40% or higher and lower than 70%). Also, the “c: corn, effect on crop grade” value in the series on corn was 1 (Herbicidal ratio of 5% or higher and lower than 20%). In addition, the “d: soybean, effect on crop grade” value in the series with soybean [4] and in the series on soybean [10] was 0 (Herbicidal ratio of 5% or lower (almost no effect)) in each case. For the same compound, the “b: directly sowed rice plant, effect on crop grade” value in the series with rice and with rice plant was 5 (Herbicidal ratio of 90% or more (almost completely withered)) throughout. In addition, the “e: wheat, effect on crop grade” value in the series with wheat [5] and with wheat [11] was 0 (Herbicidal ratio of 5% or lower (almost no effect)) in each case. Besides, in the series on Digitaria ciliaris, the “F: Digitaria ciliaris, herbicidal effect grade” value was 4 (Herbicidal ratio of 70% or higher and lower than 90%). Also, the “H: Echinochloa crus-galli var. crus-galli, herbicidal effect grade” value in series [7] is 4 (Herbicidal ratio of 70% or higher and lower than 90%). In addition, the “Q: Galium spurium, herbicidal effect grade” value in the series with Galium spurium is 3 (Herbicidal ratio of 40% or higher and lower than 70%).
